Data as given in patent publication US20050100519A1, “Topical L-carnitine compositions” (Lonza Inc., priority 2003, published 2005).
“Also recorded” adds a separate entry of the source.

Legend:
[1] = system: skin; experiment: Exfoliating efficacy of topical creams by the dansyl chloride method (skin turnover time); type: in vivo, human
Method: The exfoliating efficacy of topical L-carnitine compositions of varying pH was determined as follows. L-carnitine containing reparative/exfoliating creams with a UV sunscreen were prepared as described in Example 2, except (1) phase B included 10.00% urea, 3.0% Natrulon® H-10, and 45.50% deionized water, (2) phase C included (a) 5.6% L-carnitine, (b) q,s. of sodium hydroxide and hydrochloric acid to adjust the pH of the cream to 4, 5, 6, or 7, and (c) 20.1% deionized water.
Each topical composition (creams) was tested as follows. The composition was applied twice daily to skin (approximately 0.2 g/10 cm^2) over a period of 20 days, and the exfoliation was measured using the dansyl chloride method.
The dansyl chloride method is a method of measuring skin turnover time. The method involves first treating the skin with a fluorescent dye (namely, dansyl chloride) and then, with the aid of a UV light, observing the disappearance of the fluorescence over time. When the site no longer fluoresces, the skin is considered to have turned over.
The exfoliating efficacy of the glycolic acid cream was compared to that of the L-carnitine creams at pH 4 and pH 7 described in Example 7 by the procedure described in Example 7.
The exfoliating efficacy of topical compositions (all at pH 7) containing 2.8% or 5.6% L-carnitine or 2.8% or 5.6% racemic (DL) carnitine was determined by the method described in Example 7. The 5.6% L-carnitine composition tested was that described in Example 7. The 5.6% DL-carnitine composition was prepared as described in Example 7, replacing the 5.6% L-carnitine with 5.6% DL-carnitine. The 2.8% L-carnitine and 2.8% DL-carnitine compositions were prepared as described in Example 7, replacing the 5.6% L-carnitine with (1) 2.8% L-carnitine and 2.8% DL-carnitine, respectively, and (2) 2.8% deionized water. DL-carntine is a racemic mixture containing 50% L-carnitine and 50% D-carnitine.
The exfoliating efficacy of topical compositions including (1) papain, (2) 5.6% L-carnitine, (3) 5.6% glycolic acid, or (4) papain with 5.6% L-carnitine was determined as follows.
The compositions were tested by the procedure described in Example 7.

[2] = system: skin; experiment: Moisturizing efficacy: water content of the skin measured with a corneometer; type: in vivo, human; conditions: 5% in cream
Method: Each composition was applied twice daily to skin (0.2 g/10 cm^2) over a period of 10 days, and the water content of the skin was measured with a corneometer. Untreated skin was also tested as a control.

C[N+](C)(C)C[C@H](O)CC(=O)[O-] [L-carnitine]
exfoliating efficacy compared with racemic (DL) carnitine ([1]; 2.8% or 5.6% creams, all at pH 7 (FIG. 3)): more effective as an exfoliant than racemic carnitine at the same concentration; also recorded: exfoliates skin more effectively and faster than racemic carnitine | exfoliating efficacy, effect of composition pH ([1]; 5.6% L-carnitine cream at pH 4, 5, 6 or 7, applied twice daily over 20 days (FIG. 1)): most effective at the optimal pH for enzymes, i.e., at a pH around 7; also recorded: exfoliates skin more effectively and faster in a topical composition at a pH of 7 than a similar composition at a pH of 4, 5, or 6 | exfoliating efficacy compared with glycolic acid ([1]; L-carnitine cream, alone or with papain, vs 5.6% glycolic acid cream pH 4.0 (FIG. 2, FIG. 4)): exfoliates skin more effectively and faster than glycolic acid | ability to exfoliate and reduce the time needed for skin turnover ([1]; pH 4-7): exhibits the ability to exfoliate and to significantly reduce the time needed for skin turnover

decaglycerol
Water content of the skin after 1 day of treatment ([2]; twice daily 0.2 g/10 cm^2, 1 day): 44.4% | Water content of the skin after 2 days of treatment ([2]; twice daily 0.2 g/10 cm^2, 2 days): 54.2% | Water content of the skin after 3 days of treatment ([2]; twice daily 0.2 g/10 cm^2, 3 days): 56.9% | Water content of the skin after 6 days of treatment ([2]; twice daily 0.2 g/10 cm^2, 6 days): 53.0% | Water content of the skin after 8 days of treatment ([2]; twice daily 0.2 g/10 cm^2, 8 days): 59.2% | Water content of the skin after 9 days of treatment ([2]; twice daily 0.2 g/10 cm^2, 9 days): 62.8% | Water content of the skin after 10 days of treatment ([2]; twice daily 0.2 g/10 cm^2, 10 days): 60.5%
